Assays:
[1] = target: T1, Gonadotropin-releasing hormone receptor (Rattus norvegicus, UniProt P30969); test: In vitro binding affinity towards […] from rat pituitary cells is expressed as negative logarithm of the equilibrium dissociation constant; assay type: cell-based, Pituitary gland cell
T1 sequence (P30969 whole entry): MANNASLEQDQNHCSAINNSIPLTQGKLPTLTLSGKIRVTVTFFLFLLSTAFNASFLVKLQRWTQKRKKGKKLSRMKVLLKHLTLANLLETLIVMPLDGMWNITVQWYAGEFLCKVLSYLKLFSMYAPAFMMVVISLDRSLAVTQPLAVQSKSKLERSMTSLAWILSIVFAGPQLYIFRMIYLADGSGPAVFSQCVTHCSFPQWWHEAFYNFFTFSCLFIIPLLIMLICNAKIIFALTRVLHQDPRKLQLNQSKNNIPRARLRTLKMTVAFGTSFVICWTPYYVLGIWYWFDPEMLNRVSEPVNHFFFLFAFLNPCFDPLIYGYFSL

[2] = target: Gonadotropin-releasing hormone receptor (Rattus norvegicus) (UniProt P30969); test: Luteinizing hormone inhibiting potency in rats is expressed as negative logarithm of the concentration (antagonist); details: read-out: pA2 (converted)

SMILES | Ki [1] [nM] | Kb [2] [nM]
CCNC(=O)[C@@H]1CCCN1C(=O)[C@H](CCCN=C(N)N)NC(=O)[C@H](CC(C)C)NC(=O)[C@@H](CC(C)C)NC(=O)[C@H](Cc1ccc(O)cc1)NC(=O)[C@H](CO)NC(=O)[C@@H](N)Cc1cccc2ccccc12 | 50.1 | 
CCNC(=O)[C@@H]1CCCN1C(=O)[C@H](CCCN=C(N)N)NC(=O)[C@H](CC(C)C)NC(=O)[C@@H](CC(C)C)NC(=O)[C@H](Cc1ccc(O)cc1)NC(=O)[C@H](CO)NC(=O)[C@@H](N)Cc1c[nH]c2ccccc12 |  | 871
CCNC(=O)[C@@H]1CCCN1C(=O)[C@H](CCCN=C(N)N)NC(=O)[C@H](CC(C)C)NC(=O)[C@@H](Cc1c[nH]c2ccccc12)NC(=O)[C@H](Cc1ccc(O)cc1)NC(=O)[C@H](CO)NC(=O)[C@@H](N)Cc1c[nH]c2ccccc12 |  | 57.5

From ChEMBL document CHEMBL1124356, “Active reduced-size hexapeptide analogues of luteinizing hormone-releasing hormone” (J Med Chem, 1989)
